Results: patent US20140066394A1, “Substituted 6-(Benzylamino) Purine Riboside Derivatives, Use Thereof and Compositions Containing These Derivatives” (Biopatterns, S.R.O, priority 2009, published 2014)

How the values were obtained:
[1] = tested on: breast carcinoma cell line MCF-7; experiment: In vitro cytotoxicity, Calcein AM assay, MCF7; type: cell-based, human
Text: (§1) Low cytotoxicity of the compounds is the major property determining the cosmetic use. One of the parameters used, as the basis for cytotoxicity assays, is the metabolic activity of viable cells. For example, a microtiter assay, which uses the Calcein AM, is now widely used to quantitate cell proliferation and cytotoxicity. For instance, this assay is used in drug screening programs and in chemosensitivity testing. Because only metabolically active cells cleave Calcein AM, these assays detect viable cells exclusively. The quantity of […] Calcein AM corresponds to the number of vital cells in the culture.
(§2) Human T-lymphoblastic leukemia cell line CEM; promyelocytic HL-60 and monocytic U937 leukemias; breast carcinoma cell lines MCF-7, BT549, MDA-MB-231; glioblastoma U87MG cells; cervical carcinoma cells HELA; sarcoma cells U2OS and Saos2; hepatocellular carcinoma HepG2; mouse fibroblasts NIH3T3; mouse immortalized bone marrow macrophages B2.4 and B10A.4; P388D1 and L1210 leukemia; B16 and B16F10 melanomas; human osteosarcoma HOS; human myeloid leukemia K-562; human skin melanoma G-361 were used for routine screening of compounds. The cells were maintained in Nunc/Corning 80 cm^2 plastic tissue culture flasks and cultured in cell culture medium (DMEM with 5 g/l glucose, 2 mM glutamine, 100 U/mL penicillin, 100 μg/mL streptomycin, 10% fetal calf serum and sodium bicarbonate).
(§3) The cell suspensions that were prepared and diluted according to the particular cell type and the expected target cell density (2.500-30.000 cells per well based on cell growth characteristics) were added by pipette ([…]) into 96/well microtiter plates. Inoculates were allowed a pre-incubation period of 24 hours at 37° C. and 5% CO2 for stabilisation. Four-fold dilutions of the intended test concentration were added at time zero in 20 μl aliquots to the microtiter plate wells. Usually, the compound tested was evaluated at six 4-fold dilutions. In routine testing, the highest well concentration was 100 μM, but it can be the matter of change dependent on the agent. All drug concentrations were examined in duplicates. Incubations of cells with the tested compounds lasted for 72 hours at 37° C., in 5% CO2 atmosphere and 100% humidity. At the end of the incubation period, the cells were assayed by using Calcein AM. Ten microliters of the stock solution were pipetted into each well and incubated for 1 hour. Fluorescence (FD) was measured with the Labsystem FIA Reader Fluoroscan Ascent (UK). The tumour cell survival (GI50) was calculated using the following equitation: TCS=(FDdrug exposed well/mean FDeontrol wells)×100%. The GI50 value, the drug concentration lethal to 50% of the tumour cells, was calculated from the obtained dose response curves.
(§4) Zero cytotoxicity of the novel compounds is the basic prerequisite for agricultural and tumor-unrelated applications. The cytoxicity of the novel compounds was tested on a panel of cell lines of different histogenetic and species origin (Table 9). We show herein that equal activities were found in all tumour cell lines tested, however, the non-malignant cells, e.g. NIH3T3 fibroblasts and normal human lymphocytes, were resistant to 2,6-disubstituted purine ribosides induced cytotoxicity. The compounds listed in Tab. 9 can be divided into 2 groups. The first group contains “classical cytokinins” represented by 6-substituted purine ribosides (which are known in the prior art). The second group contains the novel 2,6-disubstituted derivatives of these compounds. […] GI50 for NIH3T3 fibroblasts and normal human lymphocytes was always higher than 100 μM. The novel derivatives show no toxicity to normal and tumour cells in concentrations about 100 μM and thus are more suitable for agricultural applications than “classical cytokinins” (6-substituted purine riboside derivatives).

[2] = tested on: human skin melanoma G-361; experiment: In vitro cytotoxicity, Calcein AM assay, G-361; type: cell-based
Text: as §1, §2, §3, §4

human osteosarcoma HOS = experiment: In vitro cytotoxicity, Calcein AM assay, HOS; type: cell-based; settings: 72 hours
Text: as §1, §2, §3, §4

[3] = tested on: promyelocytic HL-60 leukemia; experiment: In vitro cytotoxicity, Calcein AM assay, HL60; type: cell-based, human
Text: as §1, §2, §3, §4

[4] = tested on: Human T-lymphoblastic leukemia cell line CEM; experiment: In vitro cytotoxicity, Calcein AM assay, CEM; type: cell-based; settings: 72 hours
Text: as §1, §2, §3, §4

[5] = tested on: human myeloid leukemia K-562; experiment: In vitro cytotoxicity, Calcein AM assay, K-562; type: cell-based
Text: as §1, §2, §3, §4

[6] = tested on: cytokinin-dependent tobacco callus Nicotiana tabacum L. cv. Wisconsin 38; experiment: Tobacco callus bioassay (stimulation of plant cell division); type: cell-based; settings: for concentration with highest activity: increase of fresh callus weight after four weeks, tested 10^−8 M to 10^−4 M; for activity (%) [10^−5 mol · l^−1 C = 100%]: relative activity at the concentration with highest activity, kinetin riboside at 10^−5 mol/l = 100%
Protocol: Cytokinin-dependent tobacco callus Nicotiana tabacum L. cv. Wisconsin 38 was maintained at 25° C. in darkness on modified MS medium, containing per 1 liter: 4 μmol of nicotinic acid, 2.4 μmol of pyridoxine hydrochloride, 1.2 μmol of thiamine, 26.6 μmol of glycine, 1.37 μmol of glutamine, 1.8 μmol of myo-inositol, 30 g of sucrose, 8 g of agar, 5.37 μmol of NAA and 0.5 μmol of the compound tested. Subcultivation was carried out every three weeks. Fourteen days before the bioassay, the callus tissue was transferred to the media without the compound tested. The biological activity was determined from the increase of the fresh callus weight after four weeks of cultivation. Five replicates were prepared for each concentration of the compound tested and the entire test was repeated twice. From the obtained data, the concentration with the highest activity was selected for each compound tested. Relative activity of the compound at this concentration was calculated (Table 8). The compounds to be tested were dissolved in dimethylsulfoxide (DMSO) and the solution brought up to 10^−3M with distilled water. […] The compounds listed in Table 8 are compared to a “classical cytokinin” kinetin riboside (compound known in the prior art—C=control).

β-adrenergic receptors = experiment: Isoproterenol-induced cAMP synthesis in rat C6 glioma (anti-inflammatory activity); type: cell-based; settings: for Effect (modulation of isoproterenol-induced cAMP synthesis): added simultaneously with (−)-isoproterenol; for IC50: cellular cAMP by enzyme immunoassay, dose-response curve in duplicate, read-out: I50
Protocol: Anti-inflammatory activity of several of the 2-substituted 6-benzylaminopurine riboside derivatives of this invention was determined; kinetin riboside was also evaluated as a control. Rat C6 glioma (ATCC No. CCL107) was cultivated in monolayer in serum-free chemically defined medium containing Ham's F10/minimal essential medium (1:1 v/v), 2 mM L-glutamine, 1% (v/v) minimal essential medium vitamins (100×), 1% (v/v) minimal essential medium nonessential amino acids (100×), 100 U/mL penicillin, […], and 30 nM sodium selenite. Incubation was performed at 37° C. in a humidified atmosphere. The assays were performed in the logaritmic growth phase at a density of 2.5×10^5 cells/cm^2.
Intracellular cAMP synthesis was induced by addition of 5 mM (−)-isoproterenol; various amounts of test compounds were added at the same time as the (−)-isoproterenol. After […] incubation at 37° C., the medium was removed and the cellular amount of cAMP was determined using the cAMP-enzyme immunoassay kit from Amersham. The I50 value was determined from a dose-response curve in duplicate. The effect of nine purine analogues was measured after simultaneous addition with isoproterenol.
As P2Y1-like and A2 purinergic receptors, negatively and positively coupled to adenylate cyclase respectively, are present on rat C6 glioma as to be determined if the modulation of the synthesis of cAMP is due to inhibition of the activation of β-adrenergic receptors by isoproterenol are due to activation of purinergic receptors.

Compound	GI50 ([1]; 72 hours)	GI50 ([2]; 72 hours)	GI50 (human osteosarcoma HOS)	GI50 ([3]; 72 hours)	GI50 [4]	GI50 ([5]; 72 hours)	concentration with highest activity [6]	activity (%) [10^−5 mol · l^−1 C = 100%] [6]	Effect (modulation of isoproterenol-induced cAMP synthesis) (β-adrenergic receptors)	IC50 (β-adrenergic receptors)	other results
COc1cccc(CNc2ncnc3c2ncn3C2OC(CO)C(O)C2O)c1O (centres unmarked) [2-hydroxy-3-methoxybenzylamino, reference compound]	> 100 µM	> 100 µM	> 100 µM	9.5 µM	40 µM	> 100 µM					
COc1ccc(CNc2ncnc3c2ncn3[C@@H]2O[C@H](CO)[C@@H](O)[C@H]2O)c(O)c1 [2-hydroxy-4-methoxybenzylamino, reference compound]	20 µM	> 100 µM	> 100 µM	0.15 µM	0.3 µM	28 µM					
OCC1OC(n2cnc3c(NCc4cc(Cl)ccc4O)ncnc32)C(O)C1O (centres unmarked) [2-hydroxy-5-chlorobenzylamino, reference compound]	32 µM	> 100 µM	> 100 µM	1.6 µM	2.4 µM	36 µM					
OC[C@H]1O[C@@H](n2cnc3c(NCc4cc(F)ccc4O)ncnc32)[C@H](O)[C@@H]1O [2-hydroxy-5-fluorobenzylamino, reference compound]	> 100 µM	> 100 µM	> 100 µM	24 µM	52 µM	> 100 µM					
Cc1ccc(O)c(CNc2ncnc3c2ncn3C2OC(CO)C(O)C2O)c1 (centres unmarked) [2-hydroxy-5-methylbenzylamino, reference compound]	6.9 µM	> 100 µM	> 100 µM	10 µM	0.9 µM	18 µM					
COc1c(O)cccc1CNc1ncnc2c1ncn2[C@@H]1O[C@H](CO)[C@@H](O)[C@H]1O [2-methoxy-3-hydroxybenzylamino, reference compound]	> 100 µM	> 100 µM	> 100 µM	10 µM	1.9 µM	16.5 µM					
OC[C@H]1O[C@@H](n2cnc3c(NCc4ccco4)ncnc32)[C@H](O)[C@@H]1O [C, kinetin riboside, reference compound]							10^−5 mol · l^−1	100%	inactive		Effect (modulation of isoproterenol-induced cAMP synthesis) (β-adrenergic receptors; listed as control): none
COc1ccc(CNc2nc(Cl)nc3c2ncn3C2OC(CO)C(O)C2O)c(O)c1 (centres unmarked) [Compound 11]	> 100 µM	> 100 µM	> 100 µM	> 100 µM	> 100 µM	> 100 µM					
Cc1cccc(CNc2nc(Cl)nc3c2ncn3C2OC(CO)C(O)C2O)c1O (centres unmarked) [Compound 13]	> 100 µM	> 100 µM	> 100 µM	> 100 µM	> 100 µM	> 100 µM			inhibition	18.7 ± 4 µM	
COc1c(O)cccc1CNc1nc(Cl)nc2c1ncn2C1OC(CO)C(O)C1O (centres unmarked) [Compound 21]	> 100 µM	> 100 µM	> 100 µM	> 100 µM	> 100 µM	> 100 µM					
OC[C@H]1O[C@@H](n2cnc3c(NCc4cc(Cl)ccc4O)nc(Cl)nc32)[C@H](O)[C@@H]1O [Compound 29, 2-Chloro-6-(2-hydroxy-5-chlorobenzylamino)purine riboside]	> 100 µM	> 100 µM	> 100 µM	> 100 µM	> 100 µM	> 100 µM			inhibition	12.4 ± 2 µM	
OCC1OC(n2cnc3c(NCc4cc(F)ccc4O)nc(Cl)nc32)C(O)C1O (centres unmarked) [Compound 30]							10^−6 mol · l^−1	108.6 (±3) %	inhibition	15.7 ± 4 µM	GI50 ([1]; Homo sapiens, MCF7, 72 hours): > 100 µM; GI50 ([2]; Homo sapiens, G-361, 72 hours): > 100 µM; GI50 (human osteosarcoma HOS; Homo sapiens): > 100 µM; GI50 ([3]; Homo sapiens, HL-60, 72 hours): > 100 µM; GI50 ([4]; Homo sapiens): > 100 µM; GI50 ([5]; Homo sapiens, K562, 72 hours): > 100 µM
OCC1OC(n2cnc3c(NCc4ccc(F)cc4F)nc(Cl)nc32)C(O)C1O (centres unmarked) [Compound 32]							10^−6 mol · l^−1	109.7 (±12) %			
OCC1OC(n2cnc3c(NCc4c(F)ccc(F)c4F)nc(Cl)nc32)C(O)C1O (centres unmarked) [Compound 33]							10^−6 mol · l^−1	105.1 (±2) %			
COc1cccc(CNc2nc(F)nc3c2ncn3C2OC(CO)C(O)C2O)c1O (centres unmarked) [Compound 40]									inhibition	4.2 ± 2 µM	
OCC1OC(n2cnc3c(NCc4cc(Cl)ccc4O)nc(F)nc32)C(O)C1O (centres unmarked) [Compound 49]							10^−6 mol · l^−1	112 (±8) %	inhibition	10.8 ± 3 µM	
OCC1OC(n2cnc3c(NCc4cc(F)ccc4O)nc(F)nc32)C(O)C1O (centres unmarked) [Compound 50]									inhibition	13.6 ± 3 µM	
CSc1nc(NCc2ccc(F)cc2F)c2ncn(C3OC(CO)C(O)C3O)c2n1 (centres unmarked) [Compound 97]							10^−6 mol · l^−1	107 (±8) %			
